Data set [1] concerns patients with treatment resistant bipolar depression. The conditions noted are these: single 0.5 mg·kg^−1 infusion; cited from earlier work.
Data set [2] is described as follows: Pharmacokinetics of 5-MeO-DMT and bufotenine after inhalation. The conditions noted are these: uptitration scheme. Format: in vivo, human. How it is done: This applies over the whole dose range tested (6 mg, 12 mg, 18 mg). […] Uptitration as disclosed herein will not lead to accumulation and thus not to higher plasma concentrations, for instance, 10 minutes, 2 hours, or 3 hours after administration.
Blood samples were obtained at 1; 2; 4; 7; 10; 15; 20; 30; 45 min and 1; 1.5; 2; 3; 4 hours after administration.
PK parameters were generated by algebraic analysis of the concentration versus time plots for each individual. The analysis was carried out using the software Phoenix WinNonlin 6.3.

For data set [3] the following is noted: oral; cited from earlier work.

The values below come from patent US20250205199A1, “5-METHOXY-N,N-[…][…] THE TREATMENT OF SOCIAL/EMOTIONAL […] DETACHMENT” (GH RESEARCH IRELAND LIMITED, priority 2022, published 2025).

With `CNC1(c2ccccc2Cl)CCCCC1=O` (stereo not shown) [ketamine], in data set [1], the “Duration of the anti-anhedonic effect” value is on record as “up to 14 days” and the “Time until decrease of anhedonia took effect” value was at most 40 min.
Consider `CN(C)CCc1c[nH]c2ccc(O)cc12` [bufotenine], for which the “Bufotenine concentrations when subjects receiving an uptitration scheme were included” value in data set [2] was “Substantially similar observations”.
As for `CCN(CC)C(=O)[C@@H]1C=C2c3cccc4[nH]cc(c34)C[C@H]2N(C)C1` [LSD, lysergic acid diethylamide], the “Duration of acute psychedelic effects” value in data set [3] was “several hours”.
